In patent US11389413B2, “Methods of preparing compositions containing thymoquinone” (Jina Pharmaceuticals, Inc., priority 2017, dated 2022):

Tests used:
[1] = test system: Lipopolysaccaride/D-Galactosamine (LPS/GaIN) induced acute liver failure; assay: LPS/GalN induced acute liver failure, survival; type: in vivo, Male C57BL6 mice; conditions: TQ 200 mg/kg oral gavage 30 min after LPS/GalN injection; all control mice died in over 7 hrs
Experimental: A total of 13 male C57BL6 mice (5-6 weeks of age) were injected intraperitoneally with D-galactosamine (GaIN, Carbosynth) (800 mg/kg) and lipopolysaccharide (LPS from E coli 0127:B8, Sigma-Aldrich) (10 μg/kg) dissolved in normal saline. 30 min after LPS/GalN injection, 6 mice in the control group received purified water (20 mL/kg) and 7 mice received a TQ at a dose of 200 mg/kg, via oral gavage. Survival was monitored for 48 hrs. All mice in the control group died in over 7 hrs. period following the injection of LPS/GalN, while 4 out of 7 mice treated with TQ survived up to 48 hrs. (see FIG. 2).

[2] = cited from earlier work
[3] = cited from earlier work; remark: listed apart in the source
[4] = test system: streptozotocin (STZ) induced diabetic mice; assay: Hypoglycemic activity in streptozotocin-induced diabetic mice (blood glucose, water intake); type: in vivo, Male ICR (CD-1) mice
Experimental: Induction of Experimental Diabetes in Mice: Male ICR (CD-1) mice (8-9 weeks of age) were fasted for 6 hrs. before streptozotocin (STZ) administration. Fresh STZ solution at 15 mg/mL was prepared by dissolving powder STZ into 1 mM citrate buffer (pH 4.5). Mice received i.p. STZ solution of 150 mg/kg. Fasting blood glucose level was measured from tail vein blood. Mice with blood glucose levels of 250 mg/dL or higher were considered to be diabetic. Blood samples with “HI” (>600 mg/dL) reading were diluted with same amount of normal saline before measuring again.
A total of 20 diabetic mice were randomized based on the blood glucose levels into two study groups, group A: Metformin (Met)-treated, and group B: Thymoquinone/Metformin (TQ/Met)-treated groups.
There were 10 animals in each group. Mice in group A received oral administration of Met at a dose of 200 mg/kg every day. Mice in group B received oral administration of Met+TQ (200 mg/kg+50 mg/kg) every day using a 20-Ga stainless feeding needle. Fasting blood glucose level was measured weekly.
Water intake was also estimated by weighing each water bottle before and after a period of 24 hrs. The volume of water consumed was estimated from the weight of water consumed. The volume of water consumed by each cage was normalized with body weight and presented as mL/30 g BW over 24 hrs.

| Compound | mice surviving up to 48 hrs [1] | solubility in aqueous buffers [2] | stability in aqueous solutions [3] | Blood Glucose Level, Pre-Treat ([4]; fasting blood glucose, STZ diabetic mice, before treatment, Mean ± SD, n = 10) [mg/dL] | Blood Glucose Level, 1-Week Treat ([4]; fasting blood glucose, oral daily dosing, 1 week, Mean ± SD, n = 10) [mg/dL] | Blood Glucose Level, 2-Week Treat ([4]; fasting blood glucose, oral daily dosing, 2 weeks, Mean ± SD, n = 10) [mg/dL] | Blood Glucose Level, 3-Week Treat ([4]; fasting blood glucose, oral daily dosing, 3 weeks, Mean ± SD, n = 10) [mg/dL] | decrease in blood glucose level ([4]; over 3-week period, oral daily, Met 200 mg/kg, Met+TQ 200 mg/kg+50 mg/kg) [%] |
| --- | --- | --- | --- | --- | --- | --- | --- | --- |
| CC1=CC(=O)C(C(C)C)=CC1=O [TQ, 2-Isopropyl-5-methyl-1,4-benzoquinone] | 4 out of 7 | approx. 500 μg/mL | highly unstable | – | – | – | – | – |
| CN(C)C(=N)N=C(N)N [Met, Metformin] | – | – | – | 443 ± 102 | 433 ± 115 | 290 ± 84 | 299 ± 96 | 32.5 |
